From PubChem BioAssay AID256 (DTP/NCI, 2004)
Where “and” joins values, the source holds several entries; their conditions need not be identical. Equal values may be shown once. Toxic doses and inconclusive results are not listed. The calls were made as follows: active = survival T/C of 150% or more; inactive = T/C below 125% in these data.

System: CD2F1 mice, L1210 leukemia ip, survival T/C
Assay: NCI In Vivo Anticancer Drug Screen. Data for tumor model L1210 Leukemia (intraperitoneal) in CD2F1 (CDF1) mice
Details: higher = longer survival
Method in brief: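 Vehicle-treated tumor-bearing mice served as controls (C) for compound-treated mice (T). Reported figure is T divided by C.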

[1] = endpoint: mean survival time, dose: 100.0 mg/kg/injection, schedule: Q01DX001 (ip), vehicle: saline with Tween-80
[2] = endpoint: mean survival time, dose: 200.0 mg/kg/injection, schedule: Q01DX001 (ip), vehicle: saline with Tween-80
[3] = endpoint: mean survival time, dose: 400.0 mg/kg/injection, schedule: Q01DX001 (ip), vehicle: saline with Tween-80
[4] = endpoint: mean survival time, dose: 100.0 mg/kg/injection, schedule: Q04DX002 (ip), vehicle: saline with Tween-80
[5] = endpoint: mean survival time, dose: 100.0 mg/kg/injection, schedule: Q01DX009 (ip), vehicle: saline with Tween-80
[6] = endpoint: mean survival time, dose: 100.0 mg/kg/injection, schedule: Q04DX003 (ip), vehicle: saline with Tween-80
[7] = endpoint: mean survival time, dose: 200.0 mg/kg/injection, schedule: Q01DX009 (ip), vehicle: saline with Tween-80
[8] = endpoint: mean survival time, dose: 200.0 mg/kg/injection, schedule: Q04DX003 (ip), vehicle: saline with Tween-80
[9] = endpoint: mean survival time, dose: 400.0 mg/kg/injection, schedule: Q01DX009 (ip), vehicle: saline with Tween-80
[10] = endpoint: mean survival time, dose: 200.0 mg/kg/injection, schedule: Q04DX002 (ip), vehicle: saline with Tween-80
[11] = endpoint: mean survival time, dose: 400.0 mg/kg/injection, schedule: Q04DX002 (ip), vehicle: saline with Tween-80
[12] = endpoint: mean survival time, dose: 400.0 mg/kg/injection, schedule: Q04DX003 (ip), vehicle: saline with Tween-80
[13] = endpoint: mean survival time, dose: 25.0 mg/kg/injection, schedule: Q01DX009 (ip), vehicle: saline with Tween-80
[14] = endpoint: mean survival time, dose: 50.0 mg/kg/injection, schedule: Q01DX009 (ip), vehicle: saline with Tween-80
[15] = endpoint: mean survival time, dose: 25.0 mg/kg/injection, schedule: Q04DX003 (ip), vehicle: saline with Tween-80
[16] = endpoint: mean survival time, dose: 50.0 mg/kg/injection, schedule: Q04DX003 (ip), vehicle: saline with Tween-80
[17] = endpoint: mean survival time, dose: 100.0 mg/kg/injection, schedule: Q01DX009 (ip), vehicle: other
[18] = endpoint: mean survival time, dose: 400.0 mg/kg/injection, schedule: Q01DX009 (ip), vehicle: other

Measured: T/C

CC(C)(C)C1=CC(=N/S(=O)(=O)c2ccccc2)/C(N=[N+]=[N-])=C(Cl)C/1=N\S(=O)(=O)c1ccccc1
inactive: endpoint: mean survival time, dose: 25.0 mg/kg/injection, schedule: Q01DX001 (ip), vehicle: saline with Tween-80 101 % of control | endpoint: mean survival time, dose: 50.0 mg/kg/injection, schedule: Q01DX001 (ip), vehicle: saline with Tween-80 93 % of control | [1] 93 % of control | [2] 95 % of control | [3] 100 % of control

CCCCSc1cc(C)nc2ccccc12
inactive: [4] 96 % of control

Clc1ccc(Sc2ccc(Cl)cc2)cc1
inactive: [1] 94 % of control | [5] 98 % of control | [6] 91 % of control | [2] 108 % of control | [7] 102 % of control | [8] 91 % of control | [3] 91 % of control | [9] 98 % of control

O=c1ccn(C2OC(CO)C(O)C2O)c(=O)[n]1[Hg][c]1ccccc1 (configuration not stated)
inactive: endpoint: median survival time, dose: 0.79 mg/kg/injection, schedule: Q01DX005 (ip), vehicle: saline 116 % of control and 111 % of control | endpoint: median survival time, dose: 1.56 mg/kg/injection, schedule: Q01DX005 (ip), vehicle: saline 100 % of control | endpoint: median survival time, dose: 3.12 mg/kg/injection, schedule: Q01DX005 (ip), vehicle: saline 100 % of control and 101 % of control and 103 % of control | endpoint: median survival time, dose: 6.25 mg/kg/injection, schedule: Q01DX005 (ip), vehicle: saline 100 % of control and 101 % of control and 107 % of control | endpoint: median survival time, dose: 12.5 mg/kg/injection, schedule: Q01DX005 (ip), vehicle: saline 101 % of control

CCCCCCCCCCCOc1ccccc1Cl
inactive: [4] 90 % of control | [10] 93 % of control | [11] 93 % of control

c1ccc(-c2nnc(-c3ccccc3)nn2)cc1
inactive: [5] 98 % of control | [6] 98 % of control | [7] 98 % of control | [8] 101 % of control | [9] 95 % of control | [12] 96 % of control

COc1ccc(N=C2C=CC(=O)O2)cc1
inactive: [13] 95 % of control | [14] 100 % of control | [5] 97 % of control | [6] 101 % of control

O=c1ccc(OS(=O)(=O)c2ccccc2)n[nH]1
inactive: [4] 95 % of control | [10] 87 % of control | [11] 104 % of control

NC1=C(Cl)C(=O)C(N)=C(Cl)C1=O
inactive: [6] 101 % of control | [8] 101 % of control

CC([NH-])CC[NH-].[I][Pt+2][I] (configuration not stated)
inactive: endpoint: mean survival time, dose: 12.5 mg/kg/injection, schedule: Q04DX003 (ip), vehicle: saline with Tween-80 118 % of control | [15] 124 % of control | [16] 109 % of control

N#C/C(=C\c1c[nH]c2ccccc12)C(N)=O
inactive: [17] 93 % of control | [5] 97 % of control | [7] 92 % of control | [18] 88 % of control | [9] 97 % of control

CC1(C)CCC2(C)CCC3(C)C(=CCC4C5(C)CCC(O)C(C)(C)C5CCC43C)C2C1 (configuration not stated)
inactive: [6] 98 % of control | [8] 90 % of control | [12] 91 % of control

CCOC(=O)/C(C#N)=C1\CCc2cc(OC)ccc21
inactive: [5] 92 % of control | [6] 103 % of control | [7] 93 % of control | [8] 92 % of control | [9] 92 % of control | [12] 98 % of control

CN(C)S(=O)(=O)C1(c2ccccc2)CCCC1
inactive: [6] 102 % of control | [8] 105 % of control | [12] 100 % of control

CCOC(=O)/C=C(\C)N1CCCCC1
inactive: endpoint: mean survival time, dose: 100.0 mg/kg/injection, schedule: Q04DX003 (ip), vehicle: saline 92 % of control | endpoint: mean survival time, dose: 200.0 mg/kg/injection, schedule: Q04DX003 (ip), vehicle: saline 91 % of control | endpoint: mean survival time, dose: 400.0 mg/kg/injection, schedule: Q04DX003 (ip), vehicle: saline 94 % of control

O=c1ccnc[nH]1
inactive: endpoint: mean survival time, dose: 100.0 mg/kg/injection, schedule: Q04DX003 (ip), vehicle: saline sonified 93 % of control | endpoint: mean survival time, dose: 200.0 mg/kg/injection, schedule: Q04DX003 (ip), vehicle: saline sonified 104 % of control | endpoint: mean survival time, dose: 400.0 mg/kg/injection, schedule: Q04DX003 (ip), vehicle: saline sonified 104 % of control

O=C(CCl)N1CCC2(CC1)SSC1(CCN(C(=O)CCl)CC1)S2
inactive: endpoint: mean survival time, dose: 12.5 mg/kg/injection, schedule: Q01DX009 (ip), vehicle: saline with Tween-80 94 % of control | [13] 93 % of control | [15] 89 % of control | [14] 97 % of control | [16] 100 % of control | [6] 93 % of control

CCOC(=O)C1CC2(CC(C)C1=O)OCCO2 (configuration not stated)
inactive: endpoint: mean survival time, dose: 100.0 mg/kg/injection, schedule: Q04DX003 (ip), vehicle: alcohol 97 % of control | endpoint: mean survival time, dose: 200.0 mg/kg/injection, schedule: Q04DX003 (ip), vehicle: alcohol 97 % of control | endpoint: mean survival time, dose: 400.0 mg/kg/injection, schedule: Q04DX003 (ip), vehicle: alcohol 92 % of control

NC1=C(N)C(=O)NC(N)N1 (configuration not stated)
inactive: endpoint: mean survival time, dose: 100.0 mg/kg/injection, schedule: Q04DX002 (ip), vehicle: saline 102 % of control | endpoint: mean survival time, dose: 200.0 mg/kg/injection, schedule: Q04DX002 (ip), vehicle: saline 102 % of control | endpoint: mean survival time, dose: 400.0 mg/kg/injection, schedule: Q04DX002 (ip), vehicle: saline 100 % of control

O=C1CSCc2c1ccc1ccccc21
inactive: [5] 98 % of control | [7] 95 % of control | [9] 96 % of control

COc1ccc2[nH]c3c(c2c1)CSc1ccccc1-3
inactive: endpoint: mean survival time, dose: 100.0 mg/kg/injection, schedule: Q04DX003 (ip), vehicle: acetone 94 % of control | endpoint: mean survival time, dose: 200.0 mg/kg/injection, schedule: Q04DX003 (ip), vehicle: acetone 105 % of control | endpoint: mean survival time, dose: 400.0 mg/kg/injection, schedule: Q04DX003 (ip), vehicle: acetone 100 % of control

CC(=O)OCc1ccc(Cl)cc1Cl
inactive: [5] 98 % of control | [7] 104 % of control | [9] 95 % of control

[Cl][Pt+2][Cl].[NH-]c1cc2ccccc2cc1[NH-]
inactive: endpoint: mean survival time, dose: 2.5 mg/kg/injection, schedule: Q01DX009 (ip), vehicle: saline with Tween-80 102 % of control | endpoint: mean survival time, dose: 5.0 mg/kg/injection, schedule: Q01DX009 (ip), vehicle: saline with Tween-80 109 % of control | endpoint: mean survival time, dose: 10.0 mg/kg/injection, schedule: Q01DX009 (ip), vehicle: saline with Tween-80 109 % of control | endpoint: mean survival time, dose: 20.0 mg/kg/injection, schedule: Q01DX009 (ip), vehicle: saline with Tween-80 100 % of control and 112 % of control | endpoint: mean survival time, dose: 40.0 mg/kg/injection, schedule: Q01DX009 (ip), vehicle: saline with Tween-80 105 % of control and 111 % of control | endpoint: mean survival time, dose: 80.0 mg/kg/injection, schedule: Q01DX009 (ip), vehicle: saline with Tween-80 105 % of control | endpoint: mean survival time, dose: 160.0 mg/kg/injection, schedule: Q01DX009 (ip), vehicle: saline with Tween-80 106 % of control | endpoint: mean survival time, dose: 320.0 mg/kg/injection, schedule: Q01DX009 (ip), vehicle: saline with Tween-80 111 % of control

CC1(CO)C2C=CC(C2)C1(C)CO (configuration not stated)
inactive: endpoint: mean survival time, dose: 75.0 mg/kg/injection, schedule: Q01DX001 (ip), vehicle: saline 105 % of control | endpoint: mean survival time, dose: 150.0 mg/kg/injection, schedule: Q01DX001 (ip), vehicle: saline 105 % of control

Cc1nc(N)nc2c1CCC(O)S2 (configuration not stated)
inactive: endpoint: mean survival time, dose: 25.0 mg/kg/injection, schedule: Q01DX001 (ip), vehicle: Klucel (hydroxypropylcellulose) (HPC) 96 % of control | endpoint: mean survival time, dose: 50.0 mg/kg/injection, schedule: Q01DX001 (ip), vehicle: Klucel (hydroxypropylcellulose) (HPC) 96 % of control | endpoint: mean survival time, dose: 100.0 mg/kg/injection, schedule: Q01DX001 (ip), vehicle: Klucel (hydroxypropylcellulose) (HPC) 96 % of control

Fc1cc(F)c(F)c(Oc2c(F)c(F)c(-c3c(F)c(F)c(F)c(F)c3F)c(F)c2F)c1F
inactive: [6] 100 % of control | [8] 91 % of control | [12] 91 % of control

CC(=O)OC1CCC2(C)C(CCC3C2C(=O)C(OC(C)=O)C2(C)C3CC3OC4(CCC(C)CO4)C(C)C32)C1 (configuration not stated)
inactive: [6] 87 % of control | [8] 87 % of control | [12] 89 % of control

CNC(=O)Oc1cccc(NC(=O)OCc2ccccc2)c1
inactive: [6] 99 % of control | [8] 96 % of control | [12] 92 % of control

CCOP(=S)(N1CC1)N1CC1
inactive: [17] 94 % of control | endpoint: mean survival time, dose: 200.0 mg/kg/injection, schedule: Q01DX009 (ip), vehicle: other 100 % of control | [18] 90 % of control

CCOC(=O)CN(C=O)C(C)c1ccccc1 (configuration not stated)
inactive: [6] 98 % of control | [8] 93 % of control | [12] 92 % of control
